# Results reported in patent publication US20130143929A1, “FUNGICIDAL IMIDAZOLES” (EI DU PONT DE NEMOURS AND COMPANY, priority 2010, published 2013).
# Marks after values point to notes of the source that are not given here.
# Columns and labels:
# Type in all cases: in vivo
# [1] = tested on: Botrytis cinerea (the causal agent of tomato Botrytis); assay: Test C: tomato Botrytis, preventive spray on tomato seedlings, visual disease rating; settings: for Test C rating (100 = 100% disease control, 0 = no disease control relative to the controls): tomato Botrytis, preventive spray on tomato seedlings; for Test C rating (% disease control, tomato Botrytis): 100 = 100% disease control
# In short: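 Test suspension (acetone/water with 250 ppm Trem 014; 200 ppm equivalent to 800 g/ha) sprayed to run-off on tomato seedlings; B. cinerea spores inoculated next day. After 48 h saturated humidity at 20° C then 3 days at 24° C, disease rated visually as % control relative to untreated controls (0–100).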
# [2] = tested on: Septoria tritici (the causal agent of wheat leaf blotch); assay: Test B: wheat leaf blotch, preventive spray on wheat seedlings, visual disease rating; settings: for Test B rating (100 = 100% disease control, 0 = no disease control relative to the controls): wheat leaf blotch, preventive spray on wheat seedlings; for Test B rating (% disease control, wheat leaf blotch): 100 = 100% disease control
# In short: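 Wheat seedlings sprayed to run-off with compound suspension (acetone/water with 250 ppm Trem 014; 200 ppm ≈ 800 g/ha, some at 40 ppm), inoculated next day with Septoria tritici spores. 48 h saturated humidity at 24 °C, then 19 days at 20 °C; visual rating, 100 = full control.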
# [3] = tested on: Puccinia recondite f. sp. tritici (the causal agent of wheat leaf rust); assay: Test A: wheat leaf rust, preventive spray on wheat seedlings, visual disease rating; settings: for Test A rating (100 = 100% disease control, 0 = no disease control relative to the controls): wheat leaf rust, preventive spray on wheat seedlings; for Test A rating (% disease control, wheat leaf rust): 100 = 100% disease control
# In short: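 Wheat seedlings were sprayed to run-off with compound suspended in acetone/water containing 250 ppm Trem 014 (200 ppm ≈ 800 g/ha; some at 40 ppm). Puccinia recondite spores were inoculated the next day. Plants were held 24 h saturated at 20° C, then 7 days at 20° C, and disease control was rated visually on a 0–100 scale against controls.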
# [4] = tested on: Blumeria graminis f. sp. tritici (also known as Erysiphe graminis f. sp. tritici, the causal agent of wheat powdery mildew); assay: Test D: wheat powdery mildew, preventive spray on wheat seedlings, visual disease rating; settings: for Test D rating (100 = 100% disease control, 0 = no disease control relative to the controls): wheat powdery mildew, preventive spray on wheat seedlings; for Test D rating (% disease control, wheat powdery mildew): 100 = 100% disease control
# In short: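 Compound suspended in acetone/water (50/50) with 250 ppm Trem 014 and sprayed to run-off on wheat seedlings (200 ppm ≈ 800 g/ha), then inoculated next day with spore dust. Disease rated visually after 8 days at 20 °C as % control relative to untreated plants (0-100).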
# [5] = no asterisk (standard test suspension concentration, not 40 ppm)
# [6] = asterisk: 40 ppm test suspension
# [7] = no asterisk: standard test suspension concentration, 0 = no control relative to controls
# [8] = asterisk: 40 ppm test suspension, 0 = no control
Structure (SMILES),"Test C rating (100 = 100% disease control, 0 = no disease control relative to the controls) [1, 5]","Test B rating (100 = 100% disease control, 0 = no disease control relative to the controls) [2, 5]","Test A rating (100 = 100% disease control, 0 = no disease control relative to the controls) [3, 5]","Test D rating (100 = 100% disease control, 0 = no disease control relative to the controls) [4, 5]","Test C rating (100 = 100% disease control, 0 = no disease control relative to the controls) [1, 6]","Test B rating (100 = 100% disease control, 0 = no disease control relative to the controls) [2, 6]","Test A rating (100 = 100% disease control, 0 = no disease control relative to the controls) [3, 6]","Test D rating (100 = 100% disease control, 0 = no disease control relative to the controls) [4, 6]",also measured
Cc1nc(Br)c(C(O)c2ccc(Cl)cc2)n1-c1ccc(F)cc1Br (stereo not drawn) [compound 172],100%,100%,100%,90%,–,–,–,–,–
Cc1nc(Cl)c(C(O)c2ccc(F)cc2Cl)n1-c1c(F)cc(F)cc1Br (stereo not drawn) [compound 137],–,–,–,–,100* %,100* %,100* %,87* %,–
Cc1ncc(C(O)c2c(F)cc(Cl)cc2F)n1-c1ccc(F)cc1Br (stereo not drawn) [compound 305],–,–,–,–,21* %,17* %,9* %,0* %,–
COc1ccc(C(O)c2c(Br)nc(C)n2-c2ccc(F)cc2Cl)c(Cl)c1 (racemic) [compound 254],100%,100%,100%,83%,–,–,–,–,–
COc1ccc(-n2c(C(O)c3ccc(F)cc3Cl)cnc2C)c(OC)c1 (stereo not drawn) [compound 214],–,–,–,–,0* %,0* %,0* %,0* %,–
Cc1ncc(C(O)c2ccc(F)cc2F)n1-c1c(F)cccc1Br (stereo not drawn) [compound 409],–,–,–,–,–,–,–,–,"Test C rating (% disease control, tomato Botrytis) [1, 7]: 57%; Test B rating (% disease control, wheat leaf blotch) [2, 7]: 100%; Test A rating (% disease control, wheat leaf rust) [3, 7]: 99%; Test D rating (% disease control, wheat powdery mildew) [4, 7]: 0%"
Cc1cc(F)ccc1C(O)c1cnc(C)n1-c1c(F)cccc1F (stereo not drawn) [compound 80],0%,100%,99%,0%,–,–,–,–,–
COc1ccc(C(O)c2c(Br)nc(Cl)n2-c2ccc(F)cc2Cl)c(Cl)c1 (stereo not drawn) [compound 358],–,–,–,–,100* %,100* %,100* %,99* %,–
Cc1cc(F)ccc1C(O)c1cnc(C)n1-c1c(F)cc(F)cc1Cl (stereo not drawn) [compound 368],99%,100%,100%,0%,–,–,–,–,–
Cc1cc(F)ccc1C(O)c1c(Cl)nc(Cl)n1-c1c(F)cccc1F (stereo not drawn) [compound 43],100%,100%,100%,100%,–,–,–,–,–
Cc1cccc(Br)c1-n1c(C)nc(Br)c1C(O)c1ccc(F)cc1F (stereo not drawn) [compound 337],–,–,–,–,71* %,86* %,86* %,0* %,–
Cc1cc(F)ccc1C(O)c1c(Cl)nc(Cl)n1-c1c(F)cccc1Cl (racemic) [compound 23],100%,100%,100%,100%,–,–,–,–,–
"OC(c1ccc(F)cc1Cl)c1c(Cl)ncn1-c1c(F)cccc1F (stereo not drawn) [Compound 1, 4-chloro-α-(2-chloro-4-fluorophenyl)-1-(2,6-difluorophenyl)-1H-imidazole-5-methanol]",99%,100%,100%,99%,–,–,–,–,–
Cc1ncc(C(O)c2ccc(Cl)cc2)n1-c1ccc(F)cc1F (stereo not drawn) [compound 378],–,–,–,–,–,–,–,–,"Test C rating (% disease control, tomato Botrytis) [1, 7]: 0%; Test B rating (% disease control, wheat leaf blotch) [2, 7]: 74%; Test A rating (% disease control, wheat leaf rust) [3, 7]: 37%; Test D rating (% disease control, wheat powdery mildew) [4, 7]: 0%"
COc1cc(F)c(-n2c(C)nc(Br)c2C(O)c2ccc(F)cc2C)c(F)c1 (stereo not drawn) [compound 391],–,–,–,–,–,–,–,–,"Test C rating (% disease control, tomato Botrytis) [1, 8]: 0* %; Test B rating (% disease control, wheat leaf blotch) [2, 8]: 100* %; Test A rating (% disease control, wheat leaf rust) [3, 8]: 99* %; Test D rating (% disease control, wheat powdery mildew) [4, 8]: 0* %"
Cc1nc(Cl)n(-c2c(F)cccc2Cl)c1C(O)c1ccc(F)cc1Cl (stereo not drawn) [compound 206],–,–,–,–,100* %,100* %,100* %,93* %,–
Cc1cc(F)ccc1C(O)c1c(Br)nc(C)n1-c1c(F)cc(Cl)cc1F (stereo not drawn) [compound 110],–,–,–,–,0* %,100* %,96* %,0* %,–
Cc1nc(Br)c(C(O)c2ccc(F)cc2Cl)n1-c1ccc(F)cc1Br (stereo not drawn) [compound 190],99%,100%,100%,0%,–,–,–,–,–
Cc1nc(Cl)c(C(O)c2ccc(Cl)cc2Cl)n1-c1c(F)cc(Cl)cc1F (stereo not drawn) [compound 114],–,–,–,–,0* %,100* %,99* %,0* %,–
Cc1nc(Br)c(C(O)c2ccc(F)cc2)n1-c1c(F)cccc1F (stereo not drawn) [compound 133],–,–,–,–,100* %,100* %,100* %,64* %,–
"OC(c1ccc(Cl)cc1)c1c(Cl)nc(Cl)n1-c1ccc(F)cc1Cl (single isomer, unassigned) [compound 48]",100%,100%,100%,85%,–,–,–,–,–
